Measurements published in EP4775208A1, “USE OF PRMT5 INHIBITOR IN TREATMENT OF TUMORS OR CANCERS” (Apeiron Therapeutics (Hong Kong) Ltd., priority 2023, dated 2025).

Test system: Human glioma U87-luc cells
Test: In vivo efficacy in U87 orthotopic xenograft model (bioluminescence imaging)
Set-up: species or system BALB/c nude mice
Details: for Bioluminescence Signal (photons/sec), Mean: 30 mg/kg, PO, QD, U87-luc orthotopic
Procedure: V. In Vivo Efficacy of Compounds of the Present Disclosure in U87 Orthotopic Xenograft Models
Cell Culture: Human glioma U87-luc cells (Caliper-124577) were cultured as monolayers in vitro. The cells were maintained in EMEM supplemented with 10% fetal bovine serum (FBS), 100 U/mL penicillin, and 100 µg/mL streptomycin in an incubator at 37°C with 5% CO2. Routine subculturing was performed twice weekly using trypsin-EDTA. When the cells reached 80-90% confluence and the required cell number was achieved, the cells were harvested, counted, and prepared for inoculation.
Animals: Female BALB/c nude mice, weighing 18-20 g. A total of 50 mice were obtained (target study size of 24 mice, with an […]). The animals were provided by Beijing Vital River Laboratory Animal Technology Co., Ltd.
Tumor Inoculation: Prior to cell inoculation, each nude mouse was anesthetized via intraperitoneal injection of 1.25% avertin at a dose of 20 µL/g. The anesthetized mouse was fixed onto a stereotaxic instrument. The scalp was disinfected with 70% ethanol and covered with a sterile drape. A midline longitudinal incision (approximately 1 cm) was made to expose the skull. A small hole was drilled using a cranial drill at the coordinates 2 mm right and 0.5 mm anterior to the bregma. Using a microsyringe, 3 µL of U87-luc cell suspension (3.0×10^5 cells in PBS containing 20% Matrigel) was injected into the hole at a depth of 3.5 mm from the skull surface. The burr hole was sealed with tissue adhesive (or bone wax), the incision was sutured, and the skin was disinfected with povidone-iodine solution. The animals were kept warm on a heating pad during the recovery period and monitored until fully awake before being returned to their cages.
Analgesia: For analgesia, Meloxicam (3 mg/kg) was injected subcutaneously 30 minutes prior to surgery and 24 hours post-surgery.
Bioluminescence Imaging: Mice were weighed and administered D-luciferin (150 mg/kg) via intraperitoneal injection. Ten minutes post-injection, the mice were anesthetized using a mixture of oxygen and isoflurane. Once fully anesthetized, the animals were transferred to the IVIS Lumina III in vivo imaging system for detection. Bioluminescence measurements were acquired for all mice at 13 minutes post-injection. Whole-body bioluminescence, including metastatic tumors, was measured and images were captured. Imaging was performed on Day 7 post-inoculation and weekly thereafter following grouping and dosing (5 time points in total). The data are presented as bioluminescence signal values.
Animal Grouping: Seven days after cell inoculation, 24 mice were selected from the total of 50 mice based on their bioluminescence values. Using an Excel-based stratified randomization procedure, the mice were divided into 3 groups (8 mice per group): the Vehicle group, the 15 mg/kg BID group, and the 30 mg/kg QD group.
Experimental Endpoint: The experimental endpoint is animal survival.
Monitoring and Data Analysis: Animals were monitored daily, and the time of death was recorded. […] If an animal's health deteriorated or it became moribund (characterized by significant weight loss >20%, inability to eat or drink normally, difficulty moving, or paralysis), it was considered a mortality event and immediately euthanized via CO2 inhalation.
The Median Survival Time (MST, days) was calculated for each group. The Increase in Life-Span (ILS) was calculated by comparing the MST of the treatment group to that of the model control group, expressed as a percentage increase over the control group. The calculation is as follows: ILS(%) = (MSTt−MSTv)/MSTv × 100 [formula] Where: • MSTt: Median Survival Time of the treatment group • MSTv: Median Survival Time of the Vehicle group
Tumor Growth Monitoring: Bioluminescence signal intensity was used to monitor intracranial tumor growth. Bioluminescence imaging was performed once or twice weekly. […]

## CN(C(=O)c1ccc2nc(N)c3cncn3c2c1)[C@@H]1COc2cc(C(F)(F)F)ccc21 [Example 107, (S)-4-amino-N-methy 1-N-(6-(trifluoromethy 1)-2,3-dihydrobenzofuran-3-yl)imidazo[1,5-a]quinoxaline-8-carboxamide]
30 mg/kg once daily (QD) for 28 days, U87MG orthotopic mouse xenograft
  Tumor Growth Inhibition (TGI) rate: exceeding 100%
Day 0
  Bioluminescence Signal (photons/sec), Mean: 5.837E+06 photons/sec
Day 7
  Bioluminescence Signal (photons/sec), Mean: 1.419E+06 photons/sec
Day 14
  Bioluminescence Signal (photons/sec), Mean: 1.930E+06 photons/sec
Day 21
  Bioluminescence Signal (photons/sec), Mean: 1.968E+06 photons/sec
Day 28
  Bioluminescence Signal (photons/sec), Mean: 2.412E+06 photons/sec
